# Molecular target: T1, active p38 alpha enzyme (Upstate Biotechnology) (Homo sapiens, UniProt Q16539)
# T1 construct: purchased Upstate Biotechnology
# Experiment: p38α biochemical assay (ATP turnover, luminescent detection, Cambrex PKlight)
# Conditions: p38α biochemical assay, Table 1 Biological Activity
# Method: The p38α biochemical assay employed is based on measurement of total ATP turnover following enzyme incubation with substrate in the presence of ATP with the use of a luminescent detection reagent (Cambrex PKlight). The assays were performed in 1536-well white opaque plates.
# The final volume was 7.5005 μL as prepared prepared from the addition of 5 ul of kinase reaction (p38 alpah+MapkapK2+ATP) with 0.0005 μL compound dissolved in DMSO, and 2.5 ul of the detection reagent. Assay buffer contains the following reagents to give final concentration in the assay: 200 mM Tris, 100 mM MgCl2, 1.5 mM EGTA, 4 mM CaCl2, 20 mM MOPS, 1 mM EDTA, 1% glycerol, 0.1% B-Mecaptoethanol, and 1 mg/ml BSA. Test compounds are pinned using proprietary pintool technology (Kalypsys, Inc) and delivered as […] amounts into the 5 ul mixture of active p38 alpha enzyme (Upstate Biotechnology) and MapkapK2 (Upstate Biotechnology) whole protein as a substrate for phosphorylation in the presence of 1.4 uM final concentration ATP. Reactions are incubated at 30C for 2 hours and detection reagent is added in 2.5 ul/well amounts. Assay is read using a Perkin Elmer Viewlux.
# T1 sequence (Q16539 whole entry): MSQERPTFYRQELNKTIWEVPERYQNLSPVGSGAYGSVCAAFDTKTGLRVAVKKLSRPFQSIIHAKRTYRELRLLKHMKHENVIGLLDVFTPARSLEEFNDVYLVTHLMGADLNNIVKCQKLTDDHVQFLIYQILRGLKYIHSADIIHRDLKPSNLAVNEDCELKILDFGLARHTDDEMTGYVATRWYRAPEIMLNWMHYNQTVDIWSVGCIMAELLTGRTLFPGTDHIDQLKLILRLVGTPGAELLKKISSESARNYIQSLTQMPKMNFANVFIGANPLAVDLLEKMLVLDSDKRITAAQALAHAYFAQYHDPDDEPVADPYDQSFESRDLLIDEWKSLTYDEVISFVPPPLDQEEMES
row,Structure (SMILES),IC50 [nM]
1,"CC(C)NC(=O)c1csc(-c2oc(CNC(=O)OC(C)(C)C)nc2-c2ccc(F)cc2)n1 [Example 43, |4-(4-Fluoro-phenyl)-5-(4-isopropylcarbamoyl-thiazol-2-yl)-oxazol-2-ylmethyl|-carbamic acid tert-butyl ester]",> 1000
2,"COCCNC(=O)c1csc(-c2sc(C)nc2-c2ccc(F)cc2)n1 [Example 53, 4′-(4-Fluoro-phenyl)-2′-methyl-|2,5′|bithiazolyl-4-carboxylic acid (2-methoxy-ethyl)-amide]",≤ 1000
3,"CCC(CO)NC(=O)c1csc(-c2sc(C)nc2-c2ccc(F)cc2)n1 (stereo not shown) [Example 54, 4′-(4-Fluoro-phenyl)-2′-methyl-|2,5′|bithiazolyl-4-carboxylic acid (1-hydroxymethyl-propyl)-amide]",≤ 1000
4,"Cc1nc(-c2ccc(F)cc2)c(-c2nc(C(=O)NCc3cccnc3)cs2)s1 [Example 55, 4′-(4-Fluoro-phenyl)-2′-methyl-|2,5′|bithiazolyl-4-carboxylic acid (pyridin-3-ylmethyl)-amide]",≤ 1000
5,"Cc1nc(-c2ccc(F)cc2)c(-c2nc(C(=O)NCc3ccccn3)cs2)s1 [Example 56, 4′-(4-Fluoro-phenyl)-2′-methyl-|2,5′|bithiazolyl-4-carboxylic acid (pyridin-2-ylmethyl)-amide]",≤ 1000
6,"Cc1nc(-c2ccc(F)cc2)c(-c2nc(C(=O)NCc3ccncc3)cs2)s1 [Example 57, 4′-(4-Fluoro-phenyl)-2′-methyl-|2,5′|bithiazolyl-4-carboxylic acid (pyridin-4-ylmethyl)-amide]",≤ 1000
7,"Cc1nc(-c2ccc(F)cc2)c(-c2nc(C(=O)NCCCN3CCOCC3)cs2)s1 [Example 58, 4′-(4-Fluoro-phenyl)-2′-methyl-|2,5′|bithiazolyl-4-carboxylic acid (3-morpholin-4-yl-propyl)-amide]",> 1000
8,"Cc1nc(-c2ccc(F)cc2)c(-c2nc(C(=O)NCc3ccc4c(c3)OCO4)cs2)s1 [Example 59, 4′-(4-Fluoro-phenyl)-2′-methyl-|2,5′|bithiazolyl-4-carboxylic acid (benzo|1,3|dioxol-5-ylmethyl)-amide]",≤ 1000
9,"COc1ccc(CNC(=O)c2csc(-c3sc(C)nc3-c3ccc(F)cc3)n2)cc1OC [Example 60, 4′-(4-Fluoro-phenyl)-2′-methyl-|2,5′|bithiazolyl-4-carboxylic acid 3,4-dimethoxy-benzylamide]",> 1000
10,"CC(C)NC(=O)c1csc(-c2c(-c3ccc(F)cc3)n[nH]c2C2CCNCC2)n1 [Example 61, 2-|3-(4-Fluoro-phenyl)-5-piperidin-4-yl-1H-pyrazol-4-yl|-thiazole-4-carboxylic acid isopropylamide]",≤ 1000

# Now from value to compound:
row,IC50 [nM],Structure (SMILES)
1,≤ 1000,"CNC(=O)c1csc(-c2sc(C)nc2-c2ccc(F)cc2)n1 [Example 47, 4′-(4-Fluoro-phenyl)-2′-methyl-|2,5′|bithiazolyl-4-carboxylic acid methylamide]"
2,≤ 1000,"CCNC(=O)c1csc(-c2sc(C)nc2-c2ccc(F)cc2)n1 [Example 48, 4′-(4-Fluoro-phenyl)-2′-methyl-|2,5′|bithiazolyl-4-carboxylic acid ethylamide]"
3,≤ 1000,"Cc1nc(-c2ccc(F)cc2)c(-c2nc(C(=O)NCCO)cs2)s1 [Example 49, 4′-(4-Fluoro-phenyl)-2′-methyl-|2,5′|bithiazolyl-4-carboxylic acid (2-hydroxy-ethyl)-amide]"
4,≤ 1000,"Cc1nc(-c2ccc(F)cc2)c(-c2nc(C(=O)NC3CCC3)cs2)s1 [Example 50, 4′-(4-Fluoro-phenyl)-2′-methyl-|2,5′|bithiazolyl-4-carboxylic acid cyclobutylamide]"
5,≤ 1000,"Cc1nc(-c2ccc(F)cc2)c(-c2nc(C(=O)NCC3CC3)cs2)s1 [Example 51, 4′-(4-Fluoro-phenyl)-2′-methyl-|2,5′|bithiazolyl-4-carboxylic acid cyclopropylmethyl-amide]"
6,≤ 1000,"Cc1nc(-c2ccc(F)cc2)c(-c2nc(C(=O)NCCCO)cs2)s1 [Example 52, 4′-(4-Fluoro-phenyl)-2′-methyl-|2,5′|bithiazolyl-4-carboxylic acid (3-hydroxy-propyl)-amide]"
